In general, EC50 refers to the concentration that produces a half-maximal response. Read a low EC50 as a more potent agent.

Structures can show the parent of a compound that is named as a salt. Where two headings read alike, the source gives them in different places.

Data set [1] relates to SUDHL5. Put plainly: Induction of caspase-3/7 activity (Caspase-Glo 3/7), SUDHL5. The format is cell-based. Particulars: caspase-3/7 induction, SUDHL5 cells, 3 h treatment; median. In outline: (§1)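 DLBCL lines SUDHL5 and SUDHL10 treated with compounds for 3 h at 37 °C; caspase-3/7 activity read by Caspase-Glo 3/7 luminescence. Medium-only background subtracted; EC50 fitted with bottom fixed at 1 and top fixed at the reference compound's maximal induction.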

In data set [2] the test system is SUDHL5. Put plainly: Induction of cytotoxicity (CellTiter-Glo, 5 h), SUDHL5.
Data set [3] deals with SUDHL5. Briefly: Anti-proliferative effect (CellTiter-Glo, 72 h), SUDHL5. The format is cell-based. The settings on record: SUDHL5 cells, antiproliferation, 72 h incubation, median, read-out: Antiproli SUDHL5 [M] (median). In a few lines:
(§2)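 Cells plated and incubated with compounds for 72 h at 37 °C, with a parallel day 0 reference plate for time-zero signal. Viability read by CellTiter-Glo luminescence after 10 min, measured identically on the day 0 and 72 h plates.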

Data set [4] relates to SUDHL10. Put plainly: Induction of caspase-3/7 activity (Caspase-Glo 3/7), SUDHL10. The format is cell-based. Particulars: caspase-3/7 induction, SUDHL10 cells, 3 h treatment, median. In a few lines:
as §1

Data set [5] concerns SUDHL10. Put plainly: Induction of cytotoxicity (CellTiter-Glo, 5 h), SUDHL10. A general note: Cellular ATP, detected with luciferase, serves as a proxy for viable cell number.
For another data set, the system named is A2780. Put plainly: Anti-proliferative effect (CellTiter-Glo, 72 h), A2780. The format is cell-based. Particulars: A2780 cells, median, read-out: IC50 antiproliferation assay A2780 [M] (median). In outline:
as §2

The next data set has as its system OPM2. Briefly: Anti-proliferative effect (CellTiter-Glo, 72 h), OPM2. The format is cell-based. Particulars: OPM2 cells, median, read-out: IC50 antiproliferation assay OPM2 [M] (median). In a few lines: as §2
The subject of data set [6] is SUDHL10. Put plainly: Anti-proliferative effect (CellTiter-Glo, 72 h), SUDHL10. It counts as cell-based. Particulars: SUDHL10 cells, antiproliferation, 72 h incubation, median, read-out: Antiproli SUDHL10 [M] (median). In outline:
as §2

Another data set relates to MV-4-11. Put plainly: Anti-proliferative effect (CellTiter-Glo, 72 h), MV-4-11. It counts as cell-based. The settings on record: MV-4-11 cells, median, read-out: IC50 antiproliferation assay MV-4-11 [M] (median). In outline:
as §2

Another data set concerns the target MCL-1 (Homo sapiens, UniProt Q07820). Briefly: Protein-protein interaction assay MCL-1/Noxa BH3 peptide (MCL-1 assay), TR-FRET. Particulars: MBP-MCL-1 / Noxa BH3-derived peptide, median. The format is binding. In outline: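 IC50 came from a 4-parameter fit of the normalized 665/620 nm TR-FRET ratio (anti-MBP Eu-cryptate/streptavidin-XL665). Compounds (0.1 nM–20 μM, duplicates) were preincubated 10 min at 22 °C with 1 nM MBP-MCL-1 in pH 7 Tris/NaCl/KF buffer, then read after 1 h at 22 °C plus overnight at 4 °C.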
For orientation: TR-FRET usually uses a lanthanide donor and a delayed reading to cut background.

[7] abbreviates: read-out: Cytotox SUDHL5 [M] (median), SUDHL5 cells, cytotoxicity induction, CellTiter-Glo, 5 h incubation, median.
[8] abbreviates: read-out: Cytotox SUDHL10 [M] (median), SUDHL10 cells, cytotoxicity induction, CellTiter-Glo, 5 h incubation, median.
Where [9] appears, read: Homo sapiens, SU-DHL10, 5 h, read-out: Cytotox SUDHL10 [M] (median), SUDHL10 cells, cytotoxicity induction, CellTiter-Glo, 5 h incubation, median.
The mark [10] stands for this setting: Homo sapiens, SU-DHL-5, 5 h, read-out: Cytotox SUDHL5 [M] (median), SUDHL5 cells, cytotoxicity induction, CellTiter-Glo, 5 h incubation, median.

Chain of MCL-1 (Q07820 whole entry): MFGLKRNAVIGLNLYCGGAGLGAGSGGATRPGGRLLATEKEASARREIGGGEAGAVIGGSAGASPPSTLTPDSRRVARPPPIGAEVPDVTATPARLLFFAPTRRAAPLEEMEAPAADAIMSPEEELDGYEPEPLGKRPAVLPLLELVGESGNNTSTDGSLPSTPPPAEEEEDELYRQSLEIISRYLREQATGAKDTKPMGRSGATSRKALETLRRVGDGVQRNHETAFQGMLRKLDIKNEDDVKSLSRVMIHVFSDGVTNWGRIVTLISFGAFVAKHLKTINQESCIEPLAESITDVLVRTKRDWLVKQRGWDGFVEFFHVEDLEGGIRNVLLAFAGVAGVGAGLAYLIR

Turning to `Cn1nc(COc2ccc(N3CCN(S(C)(=O)=O)CC3)cc2)c2c1COCCCCn1c(C(=O)O)c(CCCOc3cccc4ccccc34)c3cccc-2c31` (single isomer, unassigned; enantiomer 1) [Example 1-9, 1-methyl-3-({4-[4-(methylsulfonyl)piperazin-1-yl]phenoxy}methyl)-7-[3-(naphthalen-1-yloxy)propyl]-1,10,11,12,13,15-hexahydropyrazolo[4′,3′:9,10][1,6]oxazacycloundecino[8,7,6-hi]indole-8-carboxylic Acid (Enantiomer 1)], the EC50 in the data set on SUDHL5 [1] was 12.5 µM; in the data set on SUDHL10 [4], 14.7 µM. Besides, the IC50 in the data set with SUDHL5 [2] (setting [7]) is 9.46e-06 M; with SUDHL5 [3], 3.37e-06 M; in the data set with SUDHL10 [5] (setting [8]), 9.08e-06 M; in the data set on A2780, above 3.3e-05 M; with OPM2, above 3.3e-05 M; with SUDHL10 [6] it was 1.17e-05 M. The results for the IC50 in the data set with MV-4-11 and against MCL-1 were 8.59e-06 M and 0.0242 µM, respectively.

As for `Cn1nc(COc2ccc(N3CCN(S(=O)(=O)C4CC4)CC3)cc2)c2c1COCCCCn1c(C(=O)O)c(CCCOc3cccc4ccccc34)c3cccc-2c31` (single isomer, unassigned; enantiomer 1) [Example 1-12, 3-({4-[4-(cyclopropylsulfonyl)piperazin-1-yl]phenoxy}methyl)-1-methyl-7-[3-(naphthalen-1-yloxy)propyl]-1,10,11,12,13,15-hexahydropyrazolo[4′,3′:9,10][1,6]oxazacycloundecino[8,7,6-hi]indole-8-carboxylic Acid (Enantiomer 1)], the results for the EC50 in the data set with SUDHL5 [1] and in the data set with SUDHL10 [4] were 18.3 µM and 20.4 µM, respectively. Further, the IC50 in the data set with SUDHL5 [2] (setting [7]) was 1.73e-05 M; in the data set with SUDHL5 [3], 5.72e-06 M; in the data set on SUDHL10 [5] (setting [8]) it was 1.43e-05 M; in the data set on A2780 it was above 3.3e-05 M; with OPM2, above 3.3e-05 M; with SUDHL10 [6], 8.96e-06 M. In addition, the IC50 with MV-4-11 is 6.78e-06 M; on MCL-1 it was 0.0688 µM.

With `Cc1c2c(nn1C)CN(C)CCCn1c(C(=O)O)c(CCCOc3cccc4ccccc34)c3cccc-2c31` (single isomer, unassigned; enantiomer 1) [Example 1-34, 7,10,11-trimethyl-1-[3-(naphthalen-1-yloxy)propyl]-4,5,6,7,8,10-hexahydropyrazolo[3′,4′:7,8][1,5]diazecino[9,10,1-hi]indole-2-carboxylic Acid-N-ethylethanamine Salt (Enantiomer 1)], the results for the EC50 with SUDHL5 [1] and in the data set with SUDHL10 [4] were 4.5 µM and 6.15 µM, respectively. The IC50 in the data set with SUDHL5 [2] (setting [7]) was 3.36e-06 M; with SUDHL5 [3] (Homo sapiens, SU-DHL-5, 72 h), 1.31e-05 M; in the data set with SUDHL10 [5] (setting [8]) it was 4.53e-06 M; with A2780 (Homo sapiens, A2780, 72 h), above 3.3e-05 M; in the data set with OPM2 (Homo sapiens, OPM-2, 72 h), 2.69e-05 M; with SUDHL10 [6] (Homo sapiens, SU-DHL10, 72 h), above 3.3e-05 M. The IC50 with MV-4-11 was 8.89e-06 M; at MCL-1, 0.00671 µM.

As to `CN(C)S(=O)(=O)N1CCN(c2ccc(OCc3nn(C)c4c3-c3cccc5c(CCCOc6cccc7ccccc67)c(C(=O)O)n(c35)CCCCCC4)cc2)CC1` (single isomer, unassigned; enantiomer 1) [Example 1-40, 3-({4-[4-(dimethylsulfamoyl)piperazin-1-yl]phenoxy}methyl)-1-methyl-7-[3-(naphthalen-1-yloxy)propyl]-10,11,12,13,14,15-hexahydro-1H-pyrazolo[4′,3′:4,5]azacycloundecino[3,2,1-hi]indole-8-carboxylic acid-N-ethylethanamine Salt (Enantiomer 1)], the EC50 in the data set with SUDHL5 [1] is 21.6 µM; in the data set on SUDHL10 [4], above 33 µM. The IC50 with SUDHL5 [2] (setting [7]) is 1.69e-05 M; in the data set with SUDHL5 [3] (Homo sapiens, SU-DHL-5, 72 h), 5.8e-06 M; with SUDHL10 [5] (setting [8]) it was 2.3e-05 M; in the data set on A2780 (Homo sapiens, A2780, 72 h), 3.95e-06 M; with OPM2, 5.38e-06 M; with SUDHL10 [6] (Homo sapiens, SU-DHL10, 72 h) it was 1.93e-06 M. In addition, the IC50 in the data set on MV-4-11 (Homo sapiens, MV4-11, 72 h) was 4.94e-06 M; on MCL-1 it was 0.0368 µM.

For the compound `Cc1nn(C)c2c1-c1cccc3c(CCCOc4cccc5ccccc45)c(C(=O)O)n(c13)CCCN(c1ccc(N3CCOCC3)cc1)C2` (single isomer, unassigned; enantiomer 1) [Example 1-99, 9,11-Dimethyl-7-[4-(morpholin-4-yl)phenyl]-1-[3-(1-naphthyloxy)propyl]-4,5,6,7,8,9-hexahydropyrazolo[3′,4′:7,8][1,5]diazecino[9,10,1-hi]indole-2-carboxylic Acid (Enantiomer 1)], the results for the EC50 in the data set on SUDHL5 [1] and with SUDHL10 [4] were 9 µM and 13.5 µM, respectively. Besides, the IC50 is 1.3e-05 M in the data set on SUDHL5 [2] (setting [7]); 8.76e-06 M in the data set on SUDHL5 [3] (Homo sapiens, SU-DHL-5, 72 h); 1.93e-05 M in the data set on SUDHL10 [5] (setting [9]); 1.12e-05 M with A2780 (Homo sapiens, A2780, 72 h); 1.98e-05 M in the data set with OPM2 (Homo sapiens, OPM-2, 72 h); 4.63e-06 M in the data set on SUDHL10 [6] (Homo sapiens, SU-DHL10, 72 h). Further, the IC50 is 7.19e-06 M in the data set with MV-4-11 (Homo sapiens, MV4-11, 72 h) and 0.0203 µM on MCL-1.

Regarding `CCS(=O)(=O)N1CCN(c2ccc(N3CCCn4c(C(=O)O)c(CCCOc5cccc6ccccc56)c5cccc(c54)-c4c(C)nn(C)c4C3)cc2)CC1` (single isomer, unassigned; enantiomer 1) [Example 1-109, 7-{4-[4-(Ethylsulfonyl)piperazin-1-yl]phenyl}-9,11-dimethyl-1-(3-(1-naphthyloxy)propyl-4,5,6,7,8,9-hexahydropyrazolo[3′,4′:7,8][1,5]diazecino[9,10,1-hi]indole-2-carboxylic Acid (Enantiomer 1)], the EC50 worked out at 7.09 µM in the data set on SUDHL5 [1] and 8.86 µM with SUDHL10 [4] (Homo sapiens, SU-DHL10, 3 h). For the same compound, the IC50 in the data set on SUDHL5 [2] (setting [10]) was determined as 8.44e-06 M; in the data set on SUDHL5 [3] (Homo sapiens, SU-DHL-5, 72 h), 4.55e-06 M; in the data set with SUDHL10 [5] (setting [9]), 1.48e-05 M; in the data set on A2780 (Homo sapiens, A2780, 72 h) it was 8.7e-06 M; in the data set with OPM2 (Homo sapiens, OPM-2, 72 h) it was 8.14e-06 M; in the data set on SUDHL10 [6] (Homo sapiens, SU-DHL10, 72 h), 4.08e-06 M. Moreover, the IC50 in the data set with MV-4-11 (Homo sapiens, MV4-11, 72 h) was 6.94e-06 M; on MCL-1 it was 0.0185 µM.

As to `Cc1c2c(nn1C)CN(C)CCCCn1c(C(=O)O)c(CCCOc3cccc4ccccc34)c3cccc-2c31` (single isomer, unassigned; enantiomer 1) [Example 068, 2,3,14-trimethyl-7-[3-(naphthalen-1-yloxy)propyl]-10,11,12,13,14,15-hexahydro-2H-pyrazolo[3′,4′:8,9][1,6]diazacycloundecino[10,11,1-hi]indole-8-carboxylic Acid (Enantiomer 1)], the EC50 with SUDHL5 [1] amounted to 1.63 µM; in the data set on SUDHL10 [4], 11.9 µM. Also, the IC50 with SUDHL5 [2] (setting [7]) is 2.25e-06 M; with SUDHL5 [3], 2.53e-06 M; in the data set with SUDHL10 [5] (setting [8]), 5.02e-06 M; with A2780 it was above 3.3e-05 M; with A2780 (Homo sapiens, A2780, 72 h), 1.85e-05 M; with OPM2 (Homo sapiens, OPM-2, 72 h) it was 9.82e-06 M. For the same compound, the IC50 in the data set on SUDHL10 [6] worked out at 1.87e-06 M; with MV-4-11 (Homo sapiens, MV4-11, 72 h) it was 1.69e-05 M; at MCL-1, 0.00442 µM.

Regarding `CC(C)c1c2c(nn1C)CN(C)CCCn1c(C(=O)O)c(CCCOc3cccc4ccccc34)c3cccc-2c31` (single isomer, unassigned; enantiomer 1) [Example 114, 7,10-dimethyl-1-[3-(naphthalen-1-yloxy)propyl]-11-(propan-2-yl)-4,5,6,7,8,10-hexahydropyrazolo[3′,4′:7,8][1,5]diazecino[9,10,1-hi]indole-2-carboxylic acid (enantiomer 1)], the EC50 is 8.86 µM with SUDHL5 [1] and 17.7 µM in the data set with SUDHL10 [4] (Homo sapiens, SU-DHL10, 3 h). In addition, the IC50 with SUDHL5 [2] (setting [10]) stood at 6.61e-06 M; with SUDHL5 [3] (Homo sapiens, SU-DHL-5, 72 h) it was 3.28e-06 M; in the data set on SUDHL10 [5] (setting [9]) it was 8.59e-06 M; in the data set on A2780 (Homo sapiens, A2780, 72 h), 7.06e-06 M; in the data set on OPM2 (Homo sapiens, OPM-2, 72 h), 1.1e-05 M; in the data set on SUDHL10 [6] (Homo sapiens, SU-DHL10, 72 h), 5.31e-06 M. In addition, the IC50 in the data set with MV-4-11 (Homo sapiens, MV4-11, 72 h) amounted to 4.54e-06 M; on MCL-1 it was 0.00303 µM.

The values are drawn from patent US10981932B2, “Macrocyclic indole derivatives” (Bayer Aktiengesellschaft, priority 2016, dated 2021).
